# Data from patent US7718651B2, “Inhibitors of FtsZ and uses thereof” (priority 2002, dated 2010).
# Test system: M. tuberculosis H37Rv
# Assay: microbe, parasite or virus in culture
# Format: cell-based
# Conditions: M. tuberculosis H37Rv, screen concentration 12.5 g/ml [sic], Table 8
row,SMILES,% Inh
1,CCOC(=O)Nc1cc(NC(C)C(=O)c2ccccc2)c([N+](=O)[O-])c(N)n1 (stereo not drawn) [Compound A161],9%
2,CCOC(=O)Nc1cc(Cl)c([N+](=O)[O-])c(N)n1 [Compound A106],49%
3,CCOC(=O)Nc1cc(N)c2nc(O)[nH]c2n1 [Compound A275],0%
4,O=C(Nc1cc(Cl)cc(NC(=O)OCc2ccccc2)n1)OCc1ccccc1 [Compound A188],1%
5,CCOC(=O)Nc1cc(NC(c2ccccc2)c2ccccc2)c(N)c(N)n1 [Compound A117],40%
6,CCOC(=O)Nc1cc(N[C@H](C)C(=O)c2ccccc2)c([N+](=O)[O-])c(N)n1 [Compound A198],0%
7,CCOC(=O)Nc1cc2[nH]c(CCc3ccccc3)nc2c(N(CCc2ccccc2)Cc2ccccc2)n1 [Compound A19],98%
8,CCOC(=O)Nc1cc2[nH]c(-c3ccc(Cl)cc3)nc2c(N(CCc2ccccc2)Cc2ccccc2)n1 [Compound A4],99%
9,CCOC(=O)Nc1cc(Cl)cc(NC(=O)OCC)n1 [Compound A185],2%
10,CCOC(=O)Nc1cc(NCCCCc2ccccc2)c2nc[nH]c2n1 [Compound A86],65%
11,CCOC(=O)Nc1cc(NC(C)/C(=N/O)c2ccccc2)c([N+](=O)[O-])c(N)n1 (stereo not drawn) [Compound A172],5%
12,CCOC(=O)Nc1cc2c3c(n1)[nH]c(=S)n3c(=S)n2N [Compound A199],0%
13,CCOC(=O)Nc1cc(NC/C(=N/O)c2ccc(Cl)cc2)c([N+](=O)[O-])c(N)n1 [Compound A239],0%
14,CCOC(=O)Nc1cc(N)c2nnsc2n1 [Compound A218],0%
15,CCOC(=O)Nc1cc(N)c2nc[nH]c2n1 [Compound A217],0%
16,CCOC(=O)Nc1cc(NCC(=O)c2ccc(F)cc2)c([N+](=O)[O-])c(N)n1 [Compound A211],0%
17,CCOC(=O)Nc1cc(NC/C(=N/O)c2ccc([N+](=O)[O-])cc2)c([N+](=O)[O-])c(N)n1 [Compound A238],0%
18,CCOC(=O)Nc1cc2c(c(N)n1)N=C(c1ccc([N+](=O)[O-])cc1)CO2 [Compound A225],0%
19,CCOC(=O)Nc1nc(NC(=O)OCC)c([N+](=O)[O-])c(Cl)c1[N+](=O)[O-] [Compound A202],0%

row,SMILES,% Inh
1,CCOC(=O)Nc1cc(N[C@@H](C)C(O)c2ccccc2)c([N+](=O)[O-])cn1 (stereo partly drawn) [Compound A309],−10%
2,CCOC(=O)Nc1cc2nc(-c3ccc(Cl)cc3)[nH]c2c(N(CCc2ccccc2)Cc2ccccc2)n1 [Compound A27],97%
3,CCOC(=O)Nc1cc(NC(C)/C(=N/O)c2ccc(NC)cc2)c([N+](=O)[O-])c(N)n1 (stereo not drawn) [Compound A144],16%
4,CCOC(=O)Nc1cc(NC/C(=N/O)c2ccc(C(F)(F)F)cc2)c([N+](=O)[O-])c(N)n1 [Compound A221],0%
5,COC(=O)Nc1cc2c(c(N)n1)N=C(c1ccccc1)[C@H](C)N2 [Compound A113],41%
6,CCOC(=O)Nc1cc(NC(c2ccccc2)c2ccccc2)c([N+](=O)[O-])c(OCC(=O)c2ccc(Br)cc2)n1 [Compound A295],0%
7,CCOC(=O)Nc1cc(N)c2ncn(-c3ccccc3)c2n1 [Compound A103],53%
8,CCOC(=O)Nc1cc2[nH]c(-c3ccc(Oc4ccccc4)cc3)nc2c(N(CCc2ccccc2)Cc2ccccc2)n1 [Compound A15],98%
9,CCOC(=O)Nc1cc2c(c(N)n1)N=C(c1cccc(OC)c1)CS2 [Compound A68],79%
10,CCOC(=O)Nc1cc(N)c([N+](=O)[O-])c(NC(=O)OCC)n1 [Compound A272],0%
11,CCOC(=O)Nc1cc(Cl)c2ncc(-c3ccc(Cl)cc3)nc2n1 [Compound A187],1%
12,CCOC(=O)Nc1cc2[nH]c(C)nc2c(N(CCc2ccccc2)Cc2ccccc2)n1 [Compound A69],71%
13,CCOC(=O)Nc1cc(NCCc2ccccc2)c(N)c(N)n1.Cl.Cl [Compound A95],59%
14,CCOC(=O)Nc1cc2c(c(N)n1)N=C(c1ccc(C)c(C)c1)CN2 [Compound A88],64%
15,CCOC(=O)Nc1cc(NC(C)[C@H](O)c2ccccc2)c(N)c(N)n1 (stereo partly drawn) [Compound A312],−19%
16,CCOC(=O)Nc1cc2c(c(N)n1)N=C(c1cccc(N)c1)C(C)N2 (stereo not drawn) [Compound A167],7%
17,CCOC(=O)Nc1cc2c(c(N)n1)N=C(c1ccc(O)cc1)[C@@H](C)N2 [Compound A166],8%
18,CCOC(=O)Nc1cc2[nH]nnc2c(Cl)n1 [Compound A206],0%
19,Nc1nc(NC(=O)OCc2ccccc2)cc(Cl)c1[N+](=O)[O-] [Compound A286],0%

row,SMILES,% Inh
1,CCOC(=O)Nc1cc(NC(C)C(=O)Cc2ccccc2)c([N+](=O)[O-])c(N)n1 (stereo not drawn) [Compound A313],−21%
2,CCOC(=O)Nc1cc(N)c2nc(C)cnc2n1 [Compound A282],0%
3,CCOC(=O)Nc1cc(NCCc2ccc(S(N)(=O)=O)cc2)c([N+](=O)[O-])c(N)n1 [Compound A126],30%
4,CCOC(=O)Nc1cc(N[C@H](C)[C@H](O)c2ccc(O)cc2)c([N+](=O)[O-])c(N)n1 [Compound A173],5%
5,CCOC(=O)Nc1cc2c(c(N)n1)N=C(CN(C)c1ccccc1)CN2 [Compound A80],70%
6,CCOC(=O)Nc1cc(NC/C(=N/O)c2ccccc2)c([N+](=O)[O-])c(N)n1 [Compound A235],0%
7,CCOC(=O)Nc1cc2c(cn1)N=C(c1ccccc1)[C@H](C)N2 [Compound A105],49%
8,CCOC(=O)Nc1cc2ncc(C)nc2c(NC(=O)OCC)n1 [Compound A276],0%
9,CCOC(=O)Nc1cc(N[C@@H](C)C(=O)c2ccc(O)cc2)c([N+](=O)[O-])c(N)n1 [Compound A304],−2%
10,CCOC(=O)Nc1cc(N[C@H](C)[C@@H](O)c2ccccc2)c(N)c(N)n1 [Compound A310],−15%
11,CCOC(=O)Nc1cc(NCC(=O)CCc2ccccc2)c([N+](=O)[O-])c(N)n1 [Compound A135],22%
12,CCOC(=O)Nc1cc2c(c(N)n1)N=C(c1ccc3ccccc3c1)CS2 [Compound A97],58%
13,CCOC(=O)Nc1cc(NC(C)/C(=N/O)c2ccc(O)cc2)c([N+](=O)[O-])c(N)n1 (stereo not drawn) [Compound A186],1%
14,CCOC(=O)Nc1cc(NC(C)[C@H](O)c2ccccc2)c(N)c(N)n1 (stereo partly drawn) [Compound A99],56%
15,CCOC(=O)Nc1cc(Nc2ccc(Cl)cc2)c2nc(-c3ccc(Cl)cc3)c(-c3ccc(Cl)cc3)nc2n1 [Compound A121],33%
16,CCOC(=O)Nc1cc2c(c(N)n1)N=C(c1ccc(O)cc1)[C@H](C)N2 [Compound A170],7%
17,CCCCC1Nc2cc(NC(=O)OCC)nc(N)c2N=C1C (stereo not drawn) [Compound A87],64%
18,CCOC(=O)Nc1cc(Cl)c([N+](=O)[O-])c(NC(=O)OCC)n1 [Compound A94],59%

# Same assay, conditions: Mycobacterium tuberculosis; M. tuberculosis H37Rv; at 12.5% μg/ml (so in the source); read-out: Primary Screen PI (% inhibition of growth)
row,SMILES,inhibition of growth at 12.5 µg/mL
1,"CCOC(=O)Nc1cc2c(c(N)n1)N=C(CN(C)c1ccc(OC)cc1)CN2 [SRI-5713, (5-Amino-3-{[(4-methoxy-phenyl)-methyl-amino]-methyl}-1,2-dihydro-pyrido[3,4-b]pyrazin-7-yl)-carbamic acid ethyl ester]",20%
